Reference: US10828372B2, “Compositions and methods for the inhibition of fibrosis” (WISCONSIN ALUMNI RESEARCH FOUNDATION, priority 2017, dated 2020)
Entries after “also recorded” stand apart in the source; their conditions may differ. Where no end group is shown, it is not given here.

What was measured:
[1] = test system: human foreskin fibroblasts, AH1F cells; test: Cell viability of fibroblast monolayers in matrix assembly assays (Cell Titer-Glo / AlamarBlue); assay type: cell-based; details: for cell viability: doses ranging from 1 to 20 μM
Experimental: Microtiter fibronectin matrix assembly assays: Exogenous plasma fibronectin matrix assembly assay: Binding and incorporation of AlexaFluor® 488-plasma fibronectin (A488-FN) to fibroblast monolayers (human foreskin fibroblasts, AH1F cells was carried out using methods known in the art. Briefly, fibroblasts (60000 per well) were allowed to adhere and spread for 2 hours in microtiter plates in 2% fetal calf serum (FCS)-containing DMEM. Peptides or modulators to be tested were added followed by 28 nM A488-FN. Cell monolayers with or without peptides and A488FN were incubated overnight at 37° C. with 5% CO2. Cell monolayers in microwells were washed with PBS or HBSS containing Ca^2+, Mg^2+. Fluorescence in 96-well plates was read using a microplate reader using bottom-readout capabilities at 485 nm excitation and 525 nm emission with 20 nm bandwidths. To estimate cell viability per well after the washes and measurement of fluorescence, an equal volume of luminescence reagent (Cell Titer-Glo®) was added followed by quantification of luminescence. Fluorescence of wells to which A488FN had not been added, i.e. intrinsic fluorescence of the cell monolayer was subtracted from fluorescence values of wells containing ligand. Data is presented respectively for fibronectin fibrillogenesis or cell viability as percent of fluorescence or luminescence values for wells with no peptides. Microplate microscopy was used to ascertain that fluorescence measurements correspond to fibrillary fibronectin.
Endogenous (cellular) fibronectin assembly assay: This immunochemical assay measures the ECM incorporation of EDA-containing fibronectin synthesized by human fibroblasts and human proximal tubular epithelial cells. Human proximal epithelial cells, HK-2 cells, were obtained from ATCC (CRL-2190). The EDA+ fibronectin is a splice variant synthesized and secreted by a variety of cells mostly during embryonic development and during wound healing, ECM remodeling, or fibrotic conditions in the adult. Fibroblasts (AH1F) were cultured in DMEM (Gibco) containing 10% fetal calf serum, and human proximal tubular epithelial cells (HK-2) were cultured in keratinocyte serum free medium (KSFM, containing pituitary extract and rEGF, Invitrogen/Thermo Fisher). Both media also contained 2.5 mM glutamine, 100 IU/ml penicillin, and 100 μg/ml streptomycin. […] Fluorescence of AlamarBlue® was read at 555 nm excitation and 585 nm emission. […] Similar to the measurement of exogenous A488-FN fluorescence, A488-EDA fluorescence was read using microplate reader equipped with bottom-readout capabilities at 485 nm excitation and 525 nm emission. […]

UUO kidneys = test: Unilateral Ureteral Obstruction (UUO) model of kidney fibrosis; assay type: in vivo, mouse; details: for decrease in CD45 staining (leukocyte infiltration) / decrease in collagens (picrosirius red birefringence): UUO kidney sections; for decrease of fibronectin deposition (immunohistochemistry): UUO kidneys, s.c. 0.3 mg per day, day 3 to day 9, vs saline; for qualitative H&E histology of UUO kidneys: compared to saline
Description: Unilateral Ureteral Obstruction model. […] All efforts were made to minimize suffering. […] PEGylated peptide equivalent amounts were based on peptide concentration.
Thus, the right, contralateral, kidney of each mouse was utilized as a control to the left UUO-treated kidney. The data from two cohorts of UUO-treated mice were combined for this study composed of the following groups (n): saline (n=5), PEG (n=4), FUD (n=5), PEG-FUD (n=8) and PEG-mFUD (n=3).
Histology and immunostaining: Paraffin-embedded tissues were sectioned at 4 μm and stained with H&E and Picrosirius Red, and IHC for fibronectin and CD45 for leukocytes. […] Staining for fibronectin was carried out using a rabbit polyclonal antibody to mouse fibronectin (RamFN) which was described in the art. RamFN diluted at 1:5000 required prior proteinase K antigen retrieval and was developed with ImmPRESS Rabbit Ig HRP. Staining for leukocytes was carried out using the pan leukocyte antibody rat anti-mouse CD45 (Leukocyte Common antigen, Ly-5, BD Pharmingen, clone 30-F11) at 1:100 after citrate pH 6.0 antigen retrieval and developed with ImmPRESS rat Ig HRP. RamFN and CD45 staining was counter stained with hematoxylin to demarcate nuclei.
Stained tissue sections were imaged using the 20× objective on an upright brightfield Nikon Eclipse 600 microscope. This microscope was also equipped with polarizer capabilities utilized to assess the birefringence of the picrosirius red-stained collagen fibers. Quantitation of birefringence or DAB product following development of HRP stains was carried out using Image J (Sun Microsystems.Ink) from 6 images from each mouse section obtained at random within the central cortical area and excluding large blood vessels and the kidney capsule.

Substance	cell viability [1] [%]	fibroblast viability ([1]; doses up to 500 nM)	decrease in CD45 staining (leukocyte infiltration) (UUO kidneys)	decrease in collagens (picrosirius red birefringence) (UUO kidneys)	decrease of fibronectin deposition (immunohistochemistry) (UUO kidneys) [%]	qualitative H&E histology of UUO kidneys (UUO kidneys)	decrease in fibroblast viability ([1]; highest concentration tested (500 nM))
PEG-FUD: PEGylated FUD prepared as in Example 1, PEG size not stated; approximately 27 kDa by mass spectrometry, likely the 20 kDa conjugate (KDQSPLAGESGETEYITEVYGNQQNPVDIDKKLPNETGFSGNMVETEDT; not fully specified (N-terminus); also: PEG size not given here)	80	approximately 100%	approximately 50%	about 50%	70	greater eosinophilic staining; also recorded: clearer tubular preservation and vascularized glomeruli	–
FUD: 49 amino acid FUD peptide, SEQ ID NO: 1, recombinantly expressed, His-tag removed; inhibitor of fibronectin fibrillogenesis (KDQSPLAGESGETEYITEVYGNQQNPVDIDKKLPNETGFSGNMVETEDT; human) [reference compound]	80	–	approximately 50%	about 50%	40	greater eosinophilic staining	approximately 20%
